{"source": "ChEMBL document CHEMBL1154839", "about": "“Molassamide, a depsipeptide serine protease inhibitor from the marine cyanobacterium Dichothrix utahensis” (J Nat Prod, 2010)", "key": {"[1]": {"target": "Chymotrypsin-like elastase family member 1 (Sus scrofa, UniProt P00772)", "sequence (P00772 whole entry)": "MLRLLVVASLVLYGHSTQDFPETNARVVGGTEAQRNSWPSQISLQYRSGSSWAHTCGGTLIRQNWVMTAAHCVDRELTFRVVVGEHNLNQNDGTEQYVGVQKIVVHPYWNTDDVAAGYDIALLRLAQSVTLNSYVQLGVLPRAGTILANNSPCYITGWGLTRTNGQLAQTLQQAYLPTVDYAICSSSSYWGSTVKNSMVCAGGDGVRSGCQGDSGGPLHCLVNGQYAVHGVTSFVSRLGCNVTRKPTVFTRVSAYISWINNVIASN", "experiment": "Inhibition of pig pancreatic elastase preincubated for 15 mins by spectrophotometry"}, "Chymotrypsinogen A": {"target": "Chymotrypsinogen A (Bos taurus, UniProt P00766)", "experiment": "Inhibition of bovine pancreas alpha-chymotrypsin preincubated for 10 mins by spectrophotometry"}, "Trypsin (Sus scrofa)": {"target": "Trypsin (Sus scrofa) (UniProt P00761)", "sequence (P00761 whole entry)": "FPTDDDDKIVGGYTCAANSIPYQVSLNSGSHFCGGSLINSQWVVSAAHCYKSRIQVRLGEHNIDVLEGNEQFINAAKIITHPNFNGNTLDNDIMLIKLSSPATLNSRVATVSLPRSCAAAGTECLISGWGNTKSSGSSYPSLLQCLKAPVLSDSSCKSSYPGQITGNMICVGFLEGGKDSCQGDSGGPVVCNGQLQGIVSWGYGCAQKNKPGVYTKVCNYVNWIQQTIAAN", "experiment": "Inhibition of pig pancreas trypsin at 10 uM preincubated for 10 mins by spectrophotometry"}}, "note": "Activity calls are given as the source filed them. No cut-off for these calls is given here."}
{"smiles": "C/C=C1\\NC(=O)[C@@H](NC(=O)[C@@H](NC(=O)[C@H](C)NC(=O)CCC)[C@@H](C)O)[C@@H](C)OC(=O)[C@H](C(C)C)NC(=O)[C@H](Cc2ccc(O)cc2)N(C)C(=O)[C@H](Cc2ccccc2)N2C(=O)[C@H](CC[C@H]2O)NC1=O", "note": "[MOLASSAMIDE]", "values": [{"measurement": "IC50", "setting": "[1]", "result": 32, "unit": "nM"}, {"measurement": "IC50", "setting": "Chymotrypsinogen A", "result": 234, "unit": "nM"}, {"measurement": "inhibition", "setting": "Trypsin (Sus scrofa)", "result": "inactive"}]}
